Assay results as given in publication PMC9823097, “Dysregulation of PRMT5 in chronic lymphocytic leukemia promotes progression with high risk of Richter’s transformation” (Nature Communications, 2023).
Read-outs that look alike come from different tables or passages of the source.

System: leukemia and lymphoma cell lines
Experiment: Proliferation of a panel of leukemia and B-lymphoma cell lines, 72 h, MTS assay
Format: cell-based
Details: for IC50: CCMCL-1, JVM-2, U-2932, RL, and KARPAS-422, read-out: Anti-proliferative IC50 values, range over cell lines
Procedure: Cell proliferation was assessed via MTS (3-[4,5-dimethylthiazol-2-yl]-5-[3-carboxymethoxyphenyl]-2-[4-sulfophenyl]-2H-tetrazolium) assay (Sigma), using the tetrazolium dye […]. Cell apoptosis was evaluated by Annexin V-FITC or PE and propidium iodide (PI) staining using FC500 cytometer (Beckman-Coulter, Indianapolis, IN) following the manufacturer’s procedure (BD Pharmingen, Billerica, MA)[55]. For cell cycle analysis, cells were fixed with cold ethanol overnight and then stained before analysis with 30 μg/mL propidium iodide (Invitrogen) and 200 μg/mL RNase (Sigma-Aldrich) in 0.1 % v/v Triton X-100 (Sigma-Aldrich). Cell cycle data analysis was performed using ModFit LT software (Verity Software House, Topsham, ME).

`CON=c1nc[nH]c2c1ccn2[C@@H]1O[C@H]([C@H](O)c2ccc(Cl)c(Cl)c2)[C@@H](O)[C@H]1O.Cl` [PRT382, (2 R,3 S,4 R,5 R)-2-[(R)-(3,4-dichlorophenyl)-hydroxy-methyl]-5-[(4Z)-4-methoxyimino-1H-pyrrolo[2,3-d]pyrimidin-7-yl]tetrahydrofuran-3,4-diol hydrochloride] was tested, and the “proliferation relative to DMSO (=1), Figure 6F” value (“proliferation relative to DMSO” below) (CCMCL, 1e-9 M) was 0.94, the “proliferation relative to DMSO” value (CCMCL, 1e-8 M) was 0.93 and the “proliferation relative to DMSO” value (CCMCL, 1e-7 M) was 0.55. The “proliferation relative to DMSO” value (CCMCL, 1e-6 M) was 0.13, the “proliferation relative to DMSO” value (CCMCL, 1e-5 M) was 0.12 and the IC50 (earlier manuscript text quoted in the peer review file) was 10 to 100 nM. For the same molecule, the IC50 was 10 to 500 nM, the “proliferation relative to DMSO” value (Jeko, 1e-9 M) was 1 and the “proliferation relative to DMSO” value (Jeko, 1e-8 M) was 0.98. The “proliferation relative to DMSO” value (Jeko, 1e-7 M) was 0.96, the “proliferation relative to DMSO” value (Jeko, 1e-6 M) was 0.13 and the “proliferation relative to DMSO” value (Jeko, 1e-5 M) was 0.14. For the same molecule, the “proliferation relative to DMSO” value (Pfeiffer, 1e-9 M) was 0.99, the “proliferation relative to DMSO” value (Pfeiffer, 1e-8 M) was 1 and the “proliferation relative to DMSO” value (Pfeiffer, 1e-7 M) was 0.76. The “proliferation relative to DMSO” value (Pfeiffer, 1e-6 M) was 0.18, the “proliferation relative to DMSO” value (Pfeiffer, 1e-5 M) was 0.22 and the “proliferation relative to DMSO” value (SU-DHL-4, 1e-9 M) was 1. The “proliferation relative to DMSO” value (SU-DHL-4, 1e-8 M) was 1, the “proliferation relative to DMSO” value (SU-DHL-4, 1e-7 M) was 0.79 and the “proliferation relative to DMSO” value (SU-DHL-4, 1e-6 M) was 0.13. For the same molecule, the “proliferation relative to DMSO” value (SU-DHL-4, 1e-5 M) was 0.15.
